Results on 1 compound are retold here after BindingDB's records for doi:10.1124/jpet.103.062836 (Bayer Healthcare, 2004).

One assay deals with Cannabinoid receptor 1 (Rattus norvegicus, UniProt P20272).
The next assay concerns the target Cannabinoid receptor 2 (Homo sapiens, UniProt P34972).

Sequence of Cannabinoid receptor 2 (P34972 whole entry): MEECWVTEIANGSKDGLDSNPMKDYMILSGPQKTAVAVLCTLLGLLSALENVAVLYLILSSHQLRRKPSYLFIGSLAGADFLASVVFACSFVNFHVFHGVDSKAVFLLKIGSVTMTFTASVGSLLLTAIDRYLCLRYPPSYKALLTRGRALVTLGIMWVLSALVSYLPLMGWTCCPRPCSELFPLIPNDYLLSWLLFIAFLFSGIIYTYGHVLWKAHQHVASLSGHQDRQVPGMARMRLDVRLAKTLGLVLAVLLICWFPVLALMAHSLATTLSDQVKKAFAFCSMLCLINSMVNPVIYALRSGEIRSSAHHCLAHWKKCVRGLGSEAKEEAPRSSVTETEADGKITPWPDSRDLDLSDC
Sequence of Cannabinoid receptor 1 (P20272 whole entry): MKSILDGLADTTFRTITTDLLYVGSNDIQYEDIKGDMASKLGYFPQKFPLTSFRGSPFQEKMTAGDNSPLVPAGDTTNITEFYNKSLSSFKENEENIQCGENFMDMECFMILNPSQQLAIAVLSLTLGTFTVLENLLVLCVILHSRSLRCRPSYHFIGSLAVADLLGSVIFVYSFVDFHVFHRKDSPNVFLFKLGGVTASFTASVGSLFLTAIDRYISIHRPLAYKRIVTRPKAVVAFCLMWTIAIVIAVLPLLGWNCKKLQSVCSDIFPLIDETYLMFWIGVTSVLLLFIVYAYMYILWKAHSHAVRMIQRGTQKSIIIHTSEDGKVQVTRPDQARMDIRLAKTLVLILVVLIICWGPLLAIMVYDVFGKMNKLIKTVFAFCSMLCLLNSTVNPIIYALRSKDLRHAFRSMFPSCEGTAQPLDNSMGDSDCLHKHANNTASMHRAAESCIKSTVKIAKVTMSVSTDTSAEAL

Consider `N#Cc1c(Oc2cccc(OS(=O)(=O)CCCC(F)(F)F)c2)cccc1C(F)(F)F`, for which the inhibition constant Ki at Cannabinoid receptor 1 amounted to 55.4 nM; at Cannabinoid receptor 2, 45.5 nM.

What is called Ki is the equilibrium dissociation constant of an inhibitor or competing ligand from its target. Read a low Ki as higher affinity.
